{"source": "patent US20240358671A1", "about": "“COMPOSITIONS AND METHODS TO TREAT SKIN DISORDERS” (THE TRUSTEES OF INDIANA UNIVERSITY, priority 2021, published 2024)", "key": {"CerS3": {"test_system": "CerS3", "experiment": "CerS3 expression in human keratinocytes treated with PPARδ agonist or antagonist, qPCR", "assay_type": "cell-based", "details": "1 μmol/ml", "from_the_text": "FIGS. 11A-11O illustrate additional experimental results. FIG. 11A: Vector map of PPARδ promoter luciferase reporter. FIGS. 11B-11C: PPARδ drives CerS3 expression. CerS3 expression in human keratinocytes (HK) treated with PPARδ agonist (GW501516, 1 μmol/ml) or antagonist (GSK0660, 1 μmol/ml) as measured by qPCR. Data presented as mean±SEM (n=5). FIGS. 11D-11F: Upregulation of DNA methyl transferases in S-1-P treated HK. Data presented as mean±SEM (n=8). FIGS. 11G-11J: Induction of histone deacetylases in S-1P treated HK. Data presented as mean±SEM (n=8). FIGS. 11K-11N) Other histone deacetylases in S-1P treated HK. […] Data presented as mean±SEM, (n=8). FIG. 11O: miR-106b expression in HK treated with S-1-P (5 μmol/ml). Data presented as mean±SEM (n=8)."}, "PPARδ promoter": {"test_system": "PPARδ promoter", "experiment": "PPARδ promoter assay", "assay_type": "cell-based", "details": "human keratinocytes; PPARδ promoter reporter; 5 μmol long chain ceramides, 48 h", "method": "PPARδ promoter assay was done as described previously. mNP-Luc (PPARdelta promoter) was a gift (Addgene plasmid #16532; http://n2t.net/addgene:16532; RRID:Addgene_16532. Human keratinocytes cells were co-transfected with the PPARδ promoter reporter construct and treated with 5 μmol of long chain ceramides, C:18 and C:24 (Avanti Polar Lipids Inc., Alabama) using Lipofectamine™ LTX Reagent with PLUS™ Reagent (Thermo Fisher Scientific). Media were collected 48 h post transfection and the secreted GLuc and SEAP activities were measured with the Secrete-Pair Dual Luminescence Assay Kit (GeneCopoeia) according to the manufacturer's protocol using the Berthold Luminometer (Berthold Technologies). Normalized promoter activity has been presented as the ratio of GLuc to SEAP activities."}, "PPARδ [1]": {"test_system": "PPARδ", "experiment": "PPARδ trans-activity assay", "assay_type": "cell-based", "details": "human keratinocytes; 5 μmol long chain ceramides, 48 h", "method": "Human keratinocytes cells were treated with 5 μmol of long chain ceramides, C18:0 and C24:0 (Avanti Polar Lipids Inc., Alabama) using Lipofectamine LTX (Thermo Fisher Scientific). Cells were collected 48 h post transfection and nuclear protein was extracted using Nuclear Extraction Kit (RayBiotech) as per manufacturer's protocol. PPARδ trans-activity was measured using PPAR delta Transcription Factor Assay Kit (abcam) as per manufacturer's instructions."}, "Streptococcus pyogenes": {"test_system": "Streptococcus pyogenes", "details": "cited from earlier work"}, "Propionibacterium acnes": {"test_system": "Propionibacterium acnes", "details": "cited from earlier work"}, "[2]": {"test_system": "Staphylococcus epidermidis", "details": "cited from earlier work"}, "S. aureus": {"test_system": "S. aureus", "details": "cited from earlier work"}, "Micrococcus luteus": {"test_system": "Micrococcus luteus", "details": "cited from earlier work"}, "P. aeruginosa": {"test_system": "P. aeruginosa", "details": "cited from earlier work"}, "[3]": {"test_system": "Staphylococcus epidermidis biofilm", "details": "cited from earlier work"}, "PPARδ [4]": {"test_system": "PPARδ", "experiment": "PPARδ expression in human keratinocyte biofilm infection", "assay_type": "cell-based", "details": "in the presence of ceramidastin", "method": "(§1) Bacterial biofilms were co-cultured with human keratinocytes cells following the method adapted from Anderson. The confluent cultures of human keratinocytes cells were inoculated with bacterial cultures of PAwt or PAΔcer (10^5 CFU/ml) in antibiotic free culture media. The plates were incubated for 1 h at 37° C. and 5% CO2. Post 1 h, fresh DMEM (without antibiotics) supplemented with 0.4% arginine was added to the plate. Post 7-8 hours, cells were harvested. The co-culture media was filtered using 0.2 μm filters and used for ceramidastin experiment. Human keratinocytes were treated with conditioned media (25% v/v) of cells co-cultured with PAwt biofilm containing ceramidastin (10 μg/ml) for 24 h.\nWestern blot was performed using antibodies against anti-PPARδ (Thermo Scientific, 1:500), anti-CerS3 (Origene, 1:500). β-actin (Sigma Aldrich, 1:5000) was used as housekeeping."}, "ABCA12": {"test_system": "ABCA12", "experiment": "ABCA12 in human keratinocytes after PAwt biofilm infection", "assay_type": "cell-based", "method": "as §1\n(§2) OCT embedded wound tissue blocks were sectioned using a cryostat. […] To enable fluorescence detection, sections were incubated with appropriate Alexa Fluor® 488 (green, Molecular probes), Alexa Fluor® […] (red, Molecular probes) conjugated secondary antibodies. […] Mosaic images were collected using collected using a Zeiss Axiovert 200 M, inverted fluorescence microscopy or confocal microscopy (LSM880). Image analysis was performed using Zen (Zeiss) software to quantitate fluorescence intensity (fluorescent pixels)."}, "PA bcdase": {"molecular_target": "T1, PA bcdase (Pseudomonas aeruginosa, UniProt Q9I596)", "T1 construct": "cutaneous lipids exposed to biofilm-infected keratinocyte conditioned media (CM); endogenous in cells; host or cells: Wild-type Pseudomonas aeruginosa (PAwt) biofilm co-cultured with human keratinocytes; the conditioned medium holds the enzyme", "T1 sequence (Q9I596 25-670)": "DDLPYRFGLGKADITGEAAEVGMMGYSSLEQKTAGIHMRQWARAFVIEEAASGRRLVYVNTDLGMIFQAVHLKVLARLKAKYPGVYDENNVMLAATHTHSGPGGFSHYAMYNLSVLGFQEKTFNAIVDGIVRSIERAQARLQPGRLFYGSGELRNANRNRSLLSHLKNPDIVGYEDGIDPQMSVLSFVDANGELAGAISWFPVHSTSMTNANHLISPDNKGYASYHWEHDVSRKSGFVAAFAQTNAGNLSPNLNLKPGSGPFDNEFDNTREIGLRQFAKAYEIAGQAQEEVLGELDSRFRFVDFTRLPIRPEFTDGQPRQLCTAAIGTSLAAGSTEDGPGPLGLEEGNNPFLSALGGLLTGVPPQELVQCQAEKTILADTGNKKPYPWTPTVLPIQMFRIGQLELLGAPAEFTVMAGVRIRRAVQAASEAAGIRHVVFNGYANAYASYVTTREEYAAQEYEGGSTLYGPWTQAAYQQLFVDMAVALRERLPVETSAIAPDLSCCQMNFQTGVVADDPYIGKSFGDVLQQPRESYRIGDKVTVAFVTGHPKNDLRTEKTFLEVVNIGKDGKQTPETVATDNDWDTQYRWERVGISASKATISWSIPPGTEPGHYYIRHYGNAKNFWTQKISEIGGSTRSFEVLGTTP", "experiment": "Ex vivo extracted skin lipids treated with biofilm-conditioned media, ceramides by LC-MS/MS", "assay_type": "biochemical", "details": "conditioned media contained ceramidastin", "method": "FIGS. 8A-8N illustrate ceramide depletion. FIGS. 8A-8L Ceramide depletion, as measured by LC-MS/MS, in cutaneous lipids exposed to biofilm-infected keratinocyte conditioned media (CM). As indicated, to test the significance of PA bcdase, the CM contained ceramidastin (CST). Lipids were extracted and analyzed using an untargeted approach as described in Materials and Methods. The resultant data were analyzed using R 3.3. Wilcoxon Rank-Sum test was used for all group analyses and Kruskal-Wallis followed by Benjamini Hochberg correction was performed for multiple comparisons with significance at p<0.05. Skin ceramides have been denoted using the standard nomenclature following the format of fatty acyl type, sphingoid backbone type, and sphingoid backbone length-fatty acyl length. NS=Cer 2 (with non-hydroxy fatty acid, sphingoid backbone); NP=Cer 3 (non-hydroxy fatty acid, phytopshingoid backbone); NH=Cer 8 (non-hydroxy fatty acid, 6-hydroxy sphingoid backbone); NDS=Cer 10 (non-hydroxy fatty acid, dihydroxy sphingoid backbone); AS=Cer 5 (α-hydroxy fatty acid, sphingoid backbone); AP=Cer 6 (α-hydroxy fatty acid, phytosphingoid backbone). The Y-axis values are in mol %. (M) Digital wound images and planimetry shown. […]\nUntargeted lipidomics was undertaken as previously published. […] Finally, lipids were analyzed via the use of MS/MSALL approach as previously disclosed. […]"}, "Human keratinocytes (HK)": {"test_system": "Human keratinocytes (HK)", "experiment": "Human keratinocytes-Pseudomonas biofilm co-culture conditioned media: keratinocyte ceramide by anti-ceramide immunostaining", "assay_type": "cell-based", "details": "HK treated with conditioned media (25% v/v) of cells co-cultured with PA biofilm containing ceramidastin 10 μg/ml, 24 h", "from_the_text": "FIGS. 7A-7U relate to ceramide depletion and ceramidastin rescue. FIGS. 7A-7S: Ceramide depletion, as measured by LC-MS/MS, in cutaneous lipids. Following exposure to bacteria as applicable, lipids were extracted and analyzed via a targeted approach. Data thus obtained were subjected to analysis by ANOVA using R3.5.3 to specifically identify those lipids with significant differences between the three groups. Those with significance as tested by ANOVA were subjected to post hoc analysis using Tukey-HSD with a FDR cutoff of 0.05. Lipids with group differences that passed these thresholds were illustrated as box plots. Skin ceramides have been denoted using the standard nomenclature following the format of fatty acyl type, sphingoid backbone type, and sphingoid backbone length-fatty acyl length. […]\nas §2"}}, "note": "Entries after “also recorded” stand apart in the source; their conditions may differ."}
{"smiles": "Cc1cc(SCc2sc(-c3ccc(C(F)(F)F)cc3)nc2C)ccc1OCC(=O)O", "note": "[GW501516]", "values": [{"measurement": "CerS3 expression", "setting": "CerS3", "value": "increased expression of CerS3"}]}
{"smiles": "CCCCCCCCCCCCC/C=C/[C@@H](O)[C@H](CO)NC(=O)CCCCCCCCCCCCCCCCCCCCCCC", "note": "[C24]", "values": [{"measurement": "PPARδ transcription", "setting": "PPARδ promoter", "value": "induced"}, {"measurement": "PPARδ transactivation", "setting": "PPARδ [1]", "value": "induced"}]}
{"smiles": "CCCCCCCCCCCCC/C=C/[C@@H](O)[C@@H](N)CO", "note": "[Sphingosine]", "values": [{"measurement": "killing of Streptococcus pyogenes", "setting": "Streptococcus pyogenes", "value": "effectively killed"}, {"measurement": "killing of Propionibacterium acnes", "setting": "Propionibacterium acnes", "value": "effectively killed"}, {"measurement": "killing of Staphylococcus epidermidis", "setting": "[2]", "value": "effectively killed"}, {"measurement": "killing of S. aureus", "setting": "S. aureus", "value": "effectively killed"}, {"measurement": "killing of Micrococcus luteus", "setting": "Micrococcus luteus", "value": "effectively killed"}, {"measurement": "killing of P. aeruginosa", "setting": "P. aeruginosa", "value": "moderately killed"}, {"measurement": "Staphylococcus epidermidis biofilm on orthopedic implant materials", "setting": "[3]", "value": "prevented and eliminated"}]}
{"smiles": "CCCCCCCCCCCCC/C=C/[C@@H](O)[C@H](CO)NC(=O)CCCCCCCCCCCCCCCCC", "note": "[C18]", "values": [{"measurement": "PPARδ transcription", "setting": "PPARδ promoter", "value": "induced"}, {"measurement": "PPARδ transactivation", "setting": "PPARδ [1]", "value": "induced"}]}
{"smiles": "CCCCCCC(O)C1C2=C(CC(C(O)C(O)C/C=C/CO)CC3=C(C(=O)OC3=O)C1O)C(=O)OC2=O", "note": "(centres unmarked) [Ceramidastin]", "values": [{"measurement": "PPARδ expression blunted by biofilm infection", "setting": "PPARδ [4]", "value": "rescued"}, {"measurement": "loss of ABCA12 in response to biofilm infection by PAwt", "setting": "ABCA12", "value": "prevented"}, {"measurement": "ceramides in extracted skin lipids treated with biofilm-conditioned media", "setting": "PA bcdase", "value": "rescue of ceramides"}, {"measurement": "keratinocyte ceramide after PAwt biofilm infection", "setting": "Human keratinocytes (HK)", "value": "rescued keratinocyte ceramide against loss; also recorded: rescued depletion of keratinocyte ceramide"}]}
{"smiles": "COC(=O)c1sccc1S(=O)(=O)Nc1ccc(Nc2ccccc2)cc1OC", "note": "[GSK0660]", "values": [{"measurement": "CerS3 expression", "setting": "CerS3", "value": "blunted the expression of CerS3"}]}
